{
  "source": "patent US20050014849A1",
  "about": "“Antifungal phenylethylene” (priority 2001, published 2005)",
  "key": {"bovine brain tubulin [1]": {"system": "T1, bovine brain tubulin", "T1 construct": "Electrophoretically homogeneous bovine brain tubulin [12]", "assay": "Tubulin polymerization assay", "assay_type": "biochemical", "conditions": "1 mg/ml tubulin; 20 min incubation at 30° C.", "description": "(§1) Electrophoretically homogeneous bovine brain tubulin [12] was used in studies to evaluate the effects of TMPN on in vitro tubulin polymerization and the binding of […] (Dupont-NEN) to tubulin. These studies were performed as described previously. In the polymerization assay, varying drug concentrations were added to 1 mg/ml tubulin to determine the amount of drug that would inhibit the extent of the reaction by 50% (20 min incubation at 30° C.) (IC50 value). In the colchicine binding assay, the effect of varying drug concentrations on the binding of 2 μg/ml colchicine to 100 μg/ml tubulin was measured after 10 min at 37° C. (control reaction about 50% complete)."}, "bovine brain tubulin [2]": {"system": "T1, bovine brain tubulin", "assay": "Colchicine binding assay", "conditions": "5 μM (combretastatin A-4 1.6 μg/ml; TMPN 1.2 μg/ml); 10 min at 37° C.", "description": "as §1"}},
  "data": [
    {"smiles": "COc1ccc(/C=C\\c2cc(OC)c(OC)c(OC)c2)cc1O", "note": "[combretastatin A-4, reference compound]", "values": [
      {"measurement": "IC50 for inhibition of the extent of tubulin assembly", "setting": "bovine brain tubulin [1]", "result": "0.32 ± 0.02", "unit": "µg/mL"},
      {"measurement": "inhibition of [^3H]colchicine binding to tubulin", "setting": "bovine brain tubulin [2]", "result": "98+1%"}
    ]}
  ]
}
